Columns and labels:
[1] = Inhibition of passively-transferred EAE in rats, parenteral treatment; type: in vivo, Lewis rats; details: for inhibition of development of disease (EAE), in words: 8 hourly subcutaneous doses for seven days, 220 mg/kg/day (mannose-6-phosphate), 200 mg/kg/day (others); for % with clinical signs of EAE: n=5; for % with clinical signs of EAE / Mean Maximum clinical score: 220 mg/kg/day (mannose 6-P) or 200 mg/kg/day (others); for Mean Maximum clinical score: controls 2.8 (saline), 3.3 (PEG 200)
Experimental: International Patent PCT/AU89/00350 identified several simple phosphosugars which had potent anti-inflammatory activity against cell-mediated inflammatory diseases such as EAE. The novel mannose 6-phosphate derivatives of the present invention have improved pharmacodynamic and pharmacokinetic properties. Thus, some of these agents are effective against EAE when they are injected either subcutaneously or intraperitoneally in rats, whereas the parent substance, mannose-6-phosphate is ineffective when administered in this manner.
In this Example, some typical novel mannoside 6-phosphates of the present invention were compared with mannose-6-phosphate for their ability to inhibit the development of […] in rats. In this experiment, according to the method of Panitch and McFarlin (18), donor Lewis rats were immunised with 50 μg myelin basic protein in complete Freund's adjuvant and 10-12 days later the spleens from these rats were removed and made into a single cell suspension. Thus, these cells, 2×10^6 ml^-1, were cultured in RPMI medium with 5% fetal calf serum, 5×10^-5 M 2-mercaptoethanol, 2 mM L-glutamine plus 30 μg/ml penicillin, 50 μg/ml streptamycin sulfate. Con A was added at 2 μg ml^-1 and cultures were incubated at 37° C. in a humidified atmosphere of 5% CO2, 7% O2 and the balance N2. Cells were harvested after 72 hours, washed once wit Hanks balanced salt solution, and 70×10^6 viable cells were then transferred to naive Lewis rat recipients via a lateral tail vein in order to induce EAE.

[2] = system: mannose-6-phosphate receptor (insulin-like growth factor II or IGF-II receptor); assay: Competitive binding assay: uptake of fluorescein-labelled polysaccharide (PPME) by U937 monocytes; type: cell-based, human (U937 cell line); details: uptake of fluoresceinated-PPME (100 μg/ml), U937 cells, 60 minutes at 37° C.; FIG. 1
Text: The novel mannoside 6-phosphates have similar affinities for the mannose-6-phosphate receptor (insulin-like growth factor II or IGF-II receptor) as the natural ligand, mannose-6-phosphate. In order to assess the binding of the novel mannoside 6-phosphates to the M6P receptor a competitive binding assay was used. In this assay a fluorescein-labelled, polysaccharide (PPME) which contains abundant mannose-6-phosphate groups, was used to detect uptake through the M6P receptor on human monocytes (U937 cell line). PPME was isolated and purified by the method of Bretthauer et al., (23) from the exopolysaccharide secreted by the yeast Pichia holstii. […]
The human monocyte cell line U937, which has a relatively high content of M6P receptors on its cell Surface (25), was obtained from the American Type Culture Collection (Rockville, Md.) and was maintained in RPMI 1640 medium (Gibco, Gaitersburg, Md.) supplemented with 2 mg/ml sodium bicarbonate, 0.2 mM glutamine, 30 μg/ml penicillin, 50 μg/ml streptamycin sulfate and 50 μg/ml neomycin sulfate and 10% foetal calf serum (FCS; Commonwealth Sarum Laboratories, Melbourne, Anstalia) at 37° C. […] Following incubations, the cells were washed twice with 10% FCS/RPMI and once with PBS and then fixed with 1% paraformaldehyde in PBS and analysed for fluorescence by flow cytometry. […]

[3] = Delayed-type hypersensitivity (DTH) footpad swelling, sheep red blood cell antigen; type: in vivo, CBA mice; details: Table 2, q.i.d. s.c., n=5, mean, 220 mg/kg/day (mannose 6-phosphate) or 200 mg/kg/day (others); for inhibition at 220 mg/kg: Mus musculus, Erythrocyte; for % swelling: control = 100
[4] = Contact sensitivity to picryl chloride, ear swelling; type: in vivo, CBA female mice; details: n=5; for inhibition at 330 mg/kg/day: Mus musculus, sc, Table 3, 6 injections s.c.; for % swelling: Table 3, 330 mg/kg/day, 6 injections s.c., control = 100
Text: Contact sensitivity is a type of delayed hypersensitivity which ours following exposure to sensitising agents including low molecular weight reactive chemical entities such as dinitro chlorobenzene (DNCB) and picryl chloride (19,21) as well as the sensitising agents found in poison ivy and poison oak (19). In sensitised individuals, in those having previously been exposed to the sensitising agent, inflammatory leucocytes migrate from the blood stream into the area immediately beneath the affected tissue producing induration which is a cardinal characteristic of the delayed-type hypersensitivity reaction (21). Thus, contact sensitivity is a well recognised cell-mediated inflammatory response. In the experiment outlined below the novel mannoside 6-phosphates were compared with mannose-6-phosphate for their ability to inhibit contact sensitivity induced by picryl chloride.
In this experiment twenty CBA female mice were sensitised to picqyl chloride after the method of Enander et al., (22) by applying 200 μl of picryl chloride solution (0.5% in 95% ethanol) to an area (approximately 2 cm^2) of their shaved abdomens. Seven days following sensitisation these animals were divided into four groups of five mice which bad been treated with either mannose-6-phosphate (55 mg/kg), methyl mannoside 6-phosphate (330 mg/kg) or decyl mannoside 6-phosphate (55 mg/kg) or saline (control) 30 minutes before they were challenged by applying 100 μl of picryl chloride solution (1% in 95% ethanol) to both sides of their left ears. Their right ears (control) were treated with 100 μl of 95% ethanol. Three and one half hours following challenge a second injection of drug or saline was given and this was repeated four times at 4 hour intervals. Four hours following the last injection the mice were anaesthetised (ether) and the contact sensitivity determined by comparing the thickness of the picryl chloride treated ears with those of the control ears. As shown in Table 3 the novel mannoside phosphates inhibited accumulation of inflammatory cells in challenged ears more effectively than mannose-6-phosphate.

[5] = experimental animals; EAE, adjuvant-induced arthritis, DTH; WO 90/01938; cited from earlier work
[6] = Table 1, t.i.d. s.c., seven days

SMILES | inhibition of development of disease (EAE), in words [1] | % with clinical signs of EAE [1, 6] [%] | Mean Maximum clinical score [1, 6] | inhibition of binding of the natural ligand, in words [2] | inhibition at 220 mg/kg [3] [%] | % swelling [3] [%] | inhibition at 330 mg/kg/day [4] [%] | % swelling [4] [%] | Mean Duration ([1]; Table 1, t.i.d. s.c., seven days, 220 mg/kg/day, saline control 4.1) [days] | Mean day of onset ([1]; Table 1, t.i.d. s.c., seven days, 220 mg/kg/day, saline control 5.2) [days] | effectiveness against EAE, in words ([1]; injected either subcutaneously or intraperitoneally in rats) | anti-inflammatory activity against cell-mediated inflammatory diseases, in words [5]
O=P(O)(O)OC[C@H]1OC(OCCCCCCCCCCCCCCCCOC2O[C@H](COP(=O)(O)O)[C@@H](O)[C@H](O)[C@@H]2O)[C@@H](O)[C@@H](O)[C@@H]1O (stereo partly drawn) [1,16-hexadecamethylene di(D-mannoside 6-phosphate)] | completely inhibited the development of disease | 0 | 0 |  |  |  |  |  |  |  |  | 
O=P(O)(O)OC[C@H]1OC(OCCCCCCOC2O[C@H](COP(=O)(O)O)[C@@H](O)[C@H](O)[C@@H]2O)[C@@H](O)[C@@H](O)[C@@H]1O (stereo partly drawn) [1,6-hexamethyene di(D-mannoside 6-phosphate)] |  |  |  | effective inhibitor of binding |  |  |  |  |  |  |  | 
CCCCCCCCCCCCCCCCOC1O[C@H](COP(=O)(O)O)[C@@H](O)[C@H](O)[C@@H]1O (stereo partly drawn) [hexadecyl mannoside 6-P, hexadecyl D-mannoside 6-phosphate] | completely inhibited the development of disease | 0 | 0 |  | 80 | 20 |  |  |  |  |  | 
CO[C@H]1O[C@H](COP(=O)(O)O)[C@@H](O)[C@H](O)[C@@H]1O [methyl mannoside 6-P, Methyl α-D-mannoside 6-phosphate] |  |  |  |  |  |  | 50 | 50 |  |  |  | 
O=P(O)(O)OC[C@H]1OC(O)[C@@H](O)[C@@H](O)[C@@H]1O (stereo partly drawn) [mannose-6-phosphate, D-mannose-6-phosphate, reference compound] | ineffective in inhibiting development of disease symptoms | 100 | 2.8 |  | 20 | 80 | 17 | 83 | 4.0 | 5.2 | ineffective | shown to have anti-inflammatory activity
CCCCCCCCCCOC1O[C@H](COP(=O)(O)O)[C@@H](O)[C@H](O)[C@@H]1O (stereo partly drawn) [decyl mannoside 6-P, Decyl D-mannoside 6-phosphate] | completely inhibited the development of disease | 0 | 0 |  | 70 | 30 | 77 | 23 |  |  |  | 
